According to patent US5223526A, “Pyrazole carboxanilide fungicides and use” (Monsanto Company, priority 1992, dated 1993):

Assays:
Botrytis cinerea [1] = experiment: Eggplant grey mold; assay type: in vivo; set-up: scale not given here; conditions: inoculated 24 h later, rated after 3-4 days; for Disease Control Rating at 20 ppm: eggplant sprayed with 20 ppm; for Disease Control Rating at 100 ppm: eggplant sprayed with 100 ppm; for Disease Control Rating at 500 ppm: eggplant sprayed with 500 ppm
Procedure, shortened: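 Protective test: compound formulations (2:3 acetone:water, 0.5% Tween 20; 500, 100 or 20 ppm) sprayed on 14-18-day-old plants, with spore inoculum (4×10^6 spore/mL) applied a day later. Disease control rated on Botrytis lesions after 3-4 days at 23 °C and 100% humidity.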

succinate dehydrogenase = molecular target: T1, succinate dehydrogenase (Botrytis cinerea, UniProt A0A384J5E4+A0A384J8V8+A0A384JHJ5); experiment: Enzyme inhibition: succinate dehydrogenase activity in Botrytis cinerea mitochondria (DCPIP reduction); assay type: biochemical; conditions: concentration required to inhibit the rate of DCPIP reduction by 50%; Botrytis cinerea isolate Nick mitochondria; read-out: I50 (μM conc.)
T1 construct: succinate-DCPIP reductase assay with KCN
Procedure, shortened: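 DCPIP (45 μM) reduction at 600 nm tracked with 17 mM succinate, 1 mM KCN and 50 mM potassium phosphate, pH 7.2. Compounds were added in acetone (final 1% v/v), and Botrytis cinerea isolate Nick mitochondrial fraction initiated the reaction. Rates minus endogenous activity gave percentage inhibition, plotted semilog against concentration to derive I50 (μM).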

Botrytis cinerea [2] = experiment: Vine grey mold (grape berries); assay type: in vivo; conditions: average of six berries, 7-10 days; for pest or weed control at 50 ppm: grape berries treated with 50 ppm, read-out: % DISEASE CONTROL 50 ppm; for pest or weed control at 200 ppm: grape berries treated with 200 ppm, read-out: % DISEASE CONTROL 200 ppm
Procedure, shortened: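 Preventive berry test: compound at 50 or 200 ppm (acetone/water, 0.05% Tween 20) applied one day before inoculation with 10^6 spores/mL Botrytis conidia. After 7-10 days at 20 °C under 12 h light, infected surface area rated; disease control expressed as percent reduction from control mean; repeated-test values averaged.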

Rhizoctonia solani = experiment: Rice sheath blight; assay type: in vivo; set-up: scale not given here; conditions: inoculated two days later, rated after 7 days, average of five plants; for Disease Control Rating at 0.5 mg/mL: foliage and soil sprayed with 0.5 mg/mL; for Disease Control Rating at 0.02 mg/mL: foliage and soil sprayed with 0.02 mg/mL; for Disease Control Rating at 0.1 mg/mL: foliage and soil sprayed with 0.1 mg/mL
Procedure, shortened: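 Preventive test: R. solani inoculum on rice grain was applied at the plant base two days after spraying foliage and soil with Compound A (0.5, 0.1 or 0.02 mg/mL, water/acetone/Tween 20). Plants aged 11–15 days stood in flood trays; after 7 days at 25 °C and high humidity, disease control was rated against untreated plants, five plants averaged.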

T1 sequence (A0A384J5E4 1-300): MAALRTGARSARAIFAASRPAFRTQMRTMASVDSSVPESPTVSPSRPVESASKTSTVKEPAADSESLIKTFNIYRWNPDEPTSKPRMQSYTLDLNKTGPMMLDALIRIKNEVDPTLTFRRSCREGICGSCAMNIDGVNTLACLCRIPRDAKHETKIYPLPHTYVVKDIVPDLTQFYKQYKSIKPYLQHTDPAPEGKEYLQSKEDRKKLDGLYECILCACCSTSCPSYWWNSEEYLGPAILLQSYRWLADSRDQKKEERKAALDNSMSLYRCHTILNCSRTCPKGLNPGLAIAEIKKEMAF
T1 sequence (A0A384J8V8 1-189): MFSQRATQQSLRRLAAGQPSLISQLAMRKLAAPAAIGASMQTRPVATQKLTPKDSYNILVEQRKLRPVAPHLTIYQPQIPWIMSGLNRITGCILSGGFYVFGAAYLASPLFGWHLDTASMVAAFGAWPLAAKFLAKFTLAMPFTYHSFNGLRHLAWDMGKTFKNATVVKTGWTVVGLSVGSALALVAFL
T1 sequence (A0A384JHJ5 1-192): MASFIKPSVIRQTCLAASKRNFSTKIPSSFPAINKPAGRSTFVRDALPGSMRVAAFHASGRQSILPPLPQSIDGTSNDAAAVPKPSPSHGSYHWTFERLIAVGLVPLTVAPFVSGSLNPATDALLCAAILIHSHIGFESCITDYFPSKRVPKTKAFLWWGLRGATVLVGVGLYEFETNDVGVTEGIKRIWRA
T1 sequence (A0A384K456 1-647 partner): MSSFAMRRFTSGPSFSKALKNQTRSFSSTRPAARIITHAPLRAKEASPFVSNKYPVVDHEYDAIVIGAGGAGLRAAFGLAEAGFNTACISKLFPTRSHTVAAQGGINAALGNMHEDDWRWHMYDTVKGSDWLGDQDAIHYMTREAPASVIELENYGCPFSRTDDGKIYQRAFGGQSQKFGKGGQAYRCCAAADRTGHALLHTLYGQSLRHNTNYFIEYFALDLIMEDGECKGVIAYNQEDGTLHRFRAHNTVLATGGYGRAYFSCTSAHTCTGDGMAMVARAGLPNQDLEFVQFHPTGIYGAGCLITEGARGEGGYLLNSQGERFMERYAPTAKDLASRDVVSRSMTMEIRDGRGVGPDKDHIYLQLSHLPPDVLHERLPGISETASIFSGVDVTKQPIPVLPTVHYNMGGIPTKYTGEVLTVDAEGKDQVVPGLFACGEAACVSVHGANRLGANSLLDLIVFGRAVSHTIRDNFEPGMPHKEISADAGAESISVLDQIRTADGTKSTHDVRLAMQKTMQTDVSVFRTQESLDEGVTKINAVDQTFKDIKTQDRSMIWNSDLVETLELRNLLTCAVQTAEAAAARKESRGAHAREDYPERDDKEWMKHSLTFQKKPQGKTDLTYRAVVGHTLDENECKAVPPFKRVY

| Structure (SMILES) | Disease Control Rating at 20 ppm (Botrytis cinerea [1]) | Disease Control Rating at 100 ppm (Botrytis cinerea [1]) | Disease Control Rating at 500 ppm (Botrytis cinerea [1]) | IC50 (succinate dehydrogenase) [µM] | pest or weed control at 50 ppm (Botrytis cinerea [2]) [%] | pest or weed control at 200 ppm (Botrytis cinerea [2]) [%] | Disease Control Rating at 0.5 mg/mL (Rhizoctonia solani) | Disease Control Rating at 0.02 mg/mL (Rhizoctonia solani) | Disease Control Rating at 0.1 mg/mL (Rhizoctonia solani) |
| --- | --- | --- | --- | --- | --- | --- | --- | --- | --- |
| CC(C)C1=C(c2ccccc2NC(=O)c2cn(C)nc2C(F)(F)F)CCCC1 [Example 128, 1H-pyrazole-4-carboxamide, N-[2-[2-(1-methylethyl)-1-cyclohexen-1-yl]phenyl]-1-methyl-3-(trifluoromethyl)-] | 0 | 0 | 0 | 1.3 | 0 | 0 | 0 |  |  |
| COc1cccc(NC(=O)c2cn(C)nc2C(F)(F)F)c1C1CCCCCCC1 [Example 37, 1H-pyrazole-4-carboxamide, N-(2-cyclooctyl-3-methoxyphenyl)-1-methyl-3-(trifluoromethyl)-] | 0 | 0 | 2 | 0.0048 | 25 | 54 | 3 | 3 | 3 |
| C[C@@H]1CCC[C@H](C)[C@@H]1Oc1ccccc1NC(=O)c1cn(C)nc1C(F)(F)F [Example 74, 1H-pyrazole-4-carboxamide, 1-methyl-N-[2-[(2,6-dimethylcyclohexyl)oxy]phenyl]-3-(trifluoromethyl)-, (lalpha,2alpha,6alpha)-] | 0 | 0 | 1 | 0.09 | 4 | 0 | 0 |  |  |
| Cc1nn(C)cc1C(=O)Nc1ccccc1C1CCCCC1 [Example 3, 1H-pyrazole-4-carboxamide, N-(2-cyclohexylphenyl)-1,3-dimethyl-] | 0 | 1 | 2 | 0.027 | 10 | 62 | 0 |  |  |
| Cn1cc(C(=O)Nc2ccccc2C2=CC(C)(C)CC(C)(C)C2)c(C(F)F)n1 [Example 121, 1H-pyrazole-4-carboxamide, 3-(difluoromethyl)-1-methyl-N-[2-(3,3,5,5-tetramethyl-1-cyclohexen-1-yl)phenyl]-] | 0 | 0 | 1 | 0.0069 | 33 | 64 | 3 | 1 | 3 |
| Cn1cc(C(=O)Nc2ccccc2C2CCCC2)c(Br)n1 [Example 64, 1H-pyrazole-4-carboxamide, 3-bromo-N-(2-cyclopentylphenyl)-1-methyl-] | 1 | 1 | 2 | 0.047 | 10 | 28 | 3 | 1 | 3 |
| Cn1cc(C(=O)Nc2ccccc2OC2(C)CCCC2)c(C(F)(F)F)n1 [Example 36, 1H-pyrazole-4-carboxamide, 1-methyl-N-[2-(1-methylcyclopentyloxy)phenyl]-3-(trifluoromethyl)-] |  |  | 0 | 0.021 | 14 | 38 | 0 |  |  |
| CC1=C(c2ccccc2NC(=O)c2cn(C)nc2C(F)(F)F)CCC1 [Example 137, 1H-pyrazole-4-carboxamide, 1-methyl-N-[2-(2-methyl-1-cyclopenten-1-yl)phenyl]-3-(trifluoromethyl)-] | 1 | 3 | 3 | 0.02 | 83 | 100 | 3 | 1 | 2 |
| Cn1cc(C(=O)Nc2ccccc2C2CCCC2)c(I)n1 [Example 69, 1H-pyrazole-4-carboxamide, N-(2-cyclopentylphenyl)-3-iodo-1-methy1-] |  |  | 0 | 0.033 | 30 | 70 | 3 | 0 | 2 |
| Cn1cc(C(=O)Nc2ccccc2O[C@@H]2C[C@H]3CC[C@@H]2C3)c(C(F)(F)F)n1 (relative stereo) [Example 81] |  |  | 0 | 0.38 | 0 | 7 | 3 | 3 | 3 |
| Cn1cc(C(=O)Nc2ccccc2OCCC2CCCC2)c(C(F)F)n1 [Example 54, 1H-pyrazole-4-carboxamide, N-[2-(2-cyclopentylethoxy)phenyl]-3-(difluoromethyl)-1-methyl-] |  |  | 0 | 0.011 | 2 | 2 | 2 |  |  |
| Cc1c(C(=O)Nc2ccccc2C2CCCCCC2)c(C(F)(F)F)nn1C [Example 99, 1H-pyrazole-4-carboxamide, N-(2-cycloheptylphenyl)-1,5-dimethyl-3-(trifluoromethyl)-] |  |  | 1 | 0.065 | 27 | 53 | 3 | 2 | 3 |
| Cn1cc(C(=O)Nc2ccccc2OCCCC2CCCC2)c(C(F)F)n1 [Example 48, 1H-pyrazole-4-carboxamide, N-[2-(3-cyclopentylpropoxy)phenyl]-3-(difluoromethyl)-1-methyl-] |  |  | 0 | 0.02 | 10 | 0 | 2 |  |  |
| Cn1cc(C(=O)Nc2cc(Cl)ccc2C2CCCCC2)c(C(F)F)n1 [Example 93, 1H-pyrazole-4-carboxamide, N-(5-chloro-2-cyclohexylphenyl)-3-(difluoromethyl)-1-methyl-] | 0 | 0 | 0 | 0.044 | 0 | 15 | 0 |  |  |
| Cn1cc(C(=O)Nc2ccccc2C2CCCCC2)c(Br)n1 [Example 5, 1H-pyrazole-4-carboxamide, 3-bromo-N-(2-cyclohexylphenyl)-1-methyl-] | 1 | 3 | 3 | 0.0066 | 50 | 40 | 0 |  |  |
| C=C(c1ccccc1NC(=O)c1cn(C)nc1C(F)(F)F)C1CCCC1 [Example 34, 1H-pyrazole-4-carboxamide, N-[2-(1-cyclopentylethenyl)phenyl]-1-methyl-3-(trifluoromethyl)-] | 0 | 2 | 2 | 0.0059 | 44 | 11 | 3 | 2 | 3 |
| Cc1nn(C)cc1C(=O)Nc1ccccc1C1CCCCCC1 [Example 13, 1H-pyrazole-4-carboxamide, N-(2-cycloheptylphenyl)-1,3-dimethyl-] | 1 | 1 | 3 | 0.011 | 63 | 66 | 3 | 2 | 3 |
| Cn1cc(C(=O)Nc2ccccc2OCC2CCCC2)c(C(F)(F)F)n1 [Example 47, 1H-pyrazole-4-carboxamide, N-[2-(cyclopentylmethoxy)phenyl]-1-methyl-3-(trifluoromethyl)-] |  |  | 0 | 0.16 | 3 | 0 | 3 | 1 | 3 |
